One assay addresses TAS2R38-PAV (Homo sapiens, UniProt P59533, A49P/I296V). Nature of the assay: Calcium mobilization assay, HEK293T-Gα16gust44 cells expressing TAS2R38-PAV. (A change in cytosolic calcium serves as a functional read-out for many receptors and channels.)
The next assay addresses TAS2R38-AVI (Homo sapiens, UniProt P59533, A262V). Nature of the assay: Calcium mobilization assay, HEK293T-Gα16gust44 cells expressing TAS2R38-AVI.

Some results are limits rather than exact numbers.

Usually EC50 stands for the concentration needed to bring the measured effect to its halfway point.

TAS2R38-PAV, sequence (P59533 whole entry A49P/I296V): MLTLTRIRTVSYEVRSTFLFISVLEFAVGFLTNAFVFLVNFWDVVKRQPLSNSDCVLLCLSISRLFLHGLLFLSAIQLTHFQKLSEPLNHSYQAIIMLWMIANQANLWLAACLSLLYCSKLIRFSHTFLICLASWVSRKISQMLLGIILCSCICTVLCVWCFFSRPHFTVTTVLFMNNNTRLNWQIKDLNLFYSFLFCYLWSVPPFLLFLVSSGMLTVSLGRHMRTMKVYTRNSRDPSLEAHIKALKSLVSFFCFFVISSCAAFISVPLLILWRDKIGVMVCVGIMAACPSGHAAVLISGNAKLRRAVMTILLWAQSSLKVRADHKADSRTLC
TAS2R38-AVI, sequence (P59533 whole entry A262V): as the sequence (P59533 whole entry A49P/I296V) above, with P49A, A262V, V296I counted along it
Protocol for TAS2R38-AVI: (§1) Different concentration ranges were tested depending on the injected sweet compound. […] All of the concentration-receptor combinations were measured in triplicate, and each experiment was repeated at least 3 times. The Ca^2+ change was expressed as a fractional change in fluorescent light intensity: ΔF/F = (F − F0)/F0, where F was the fluorescent light intensity at each point, and F0 was the value of fluorescent light emitted prior to stimulus application. To calculate dose–response relationships, the changes in fluorescence upon stimulus application were averaged, mock-subtracted and baseline-corrected. The resulting obtained dose–response data were adjusted by using a 4-parameter logistic equation. The half-maximal effective concentration (EC50) was calculated by using SigmaPlot software (Systat Software, San Jose, CA, USA) as described in supplemental Supplementary Figs. S1, S2, and S3.
Protocol for TAS2R38-PAV: as §1

`C[C@H](CC[C@@H](O[C@@H]1O[C@H](CO[C@@H]2O[C@H](CO)[C@@H](O)[C@H](O)[C@H]2O)[C@@H](O)[C@H](O)[C@H]1O[C@@H]1O[C@H](CO)[C@@H](O)[C@H](O)[C@H]1O)C(C)(C)O)[C@H]1CC[C@@]2(C)[C@@H]3CC=C4[C@@H](CC[C@H](O[C@@H]5O[C@H](CO[C@@H]6O[C@H](CO)[C@@H](O)[C@H](O)[C@H]6O)[C@@H](O)[C@H](O)[C@H]5O)C4(C)C)[C@]3(C)[C@H](O)C[C@]12C` [Mogroside V, mogroside V]: the EC50 on TAS2R38-PAV (read-out: TAS2R38-PAV EC50, text prints TAS2R38) was 253 ± 139 µM.
With `O=C(CO)[C@H](O)[C@H](O)[C@H](O)CO` [D-allulose], on TAS2R38-AVI, the “concentrations at which TAS2R38-AVI was activated” value is on record as more than 300 mM. In addition, the “concentrations at which TAS2R38-PAV was activated” value at TAS2R38-PAV is reported as more than 300 mM.

Source of the values: publication PMC11631053, “A receptor-based assay to study the sweet and bitter tastes of sweeteners and binary sweet blends: the SWEET project” (Chemical Senses, 2024).
